Measured values as given in ChEMBL document CHEMBL1201862, “PubChem BioAssay data set” (2004).
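In this assay, cells in 96-well plates receive the compound at five concentrations for 48 hours. Endpoints are linearly interpolated between the surrounding concentrations. The concentration for 50% growth inhibition is given as GI50.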 Calls of active or inactive are those of the source. No stated cut-off is given here; in the data, active = GI50 up to about 1.1 µM and inactive = higher.

What was measured:
Experiment in all cases: NCI tumour cell line growth inhibition, 48 h
UACC-62 = tested on: UACC-62
HCC 2998 = tested on: HCC 2998
OVCAR-8 = tested on: OVCAR-8
SK-MEL-5 = tested on: SK-MEL-5
SK-MEL-28 = tested on: SK-MEL-28
IGROV-1 = tested on: IGROV-1
HT-29 = tested on: HT-29
A549 = tested on: A549
SF-539 = tested on: SF-539
U-251 = tested on: U-251
RPMI-8226 = tested on: RPMI-8226
COLO 205 = tested on: COLO 205
UACC-257 = tested on: UACC-257
SK-OV-3 = tested on: SK-OV-3
EKVX = tested on: EKVX
OVCAR-5 = tested on: OVCAR-5
NCI-H226 = tested on: NCI-H226
NCI-H522 = tested on: NCI-H522
KM12 = tested on: KM12

Measured: GI50

O=c1ccccc2cccc(O)c12
inactive: UACC-62 > 100 µM | HCC 2998 > 100 µM | OVCAR-8 > 100 µM | SK-MEL-5 > 100 µM | SK-MEL-28 > 100 µM | IGROV-1 > 100 µM | HT-29 > 100 µM | A549 > 100 µM | SF-539 > 100 µM | U-251 > 100 µM | RPMI-8226 > 100 µM | COLO 205 > 100 µM | UACC-257 > 100 µM | SK-OV-3 > 100 µM | EKVX 94.2 µM

C=CC1=C(C)/C(=C/C2=NC(=C\c3[nH]c(CC4NC(=O)C(C)/C4=C\C)c(C)c3CCC(=O)O)/C(CC(=O)O)=C2C)NC1=O (configuration not stated)
inactive: UACC-62 > 100 µM | HCC 2998 > 100 µM | OVCAR-8 > 100 µM | SK-MEL-28 > 100 µM | OVCAR-5 > 100 µM | IGROV-1 > 100 µM | NCI-H226 > 100 µM | HT-29 > 100 µM | A549 > 100 µM | SF-539 > 100 µM | NCI-H522 > 100 µM | U-251 > 100 µM | COLO 205 > 100 µM | UACC-257 > 100 µM | KM12 > 100 µM | SK-OV-3 > 100 µM | EKVX > 100 µM

Cc1ccc(NC(=O)/C(=N/NC(=O)C[N+](C)(C)C)c2nc3ccccc3nc2O)cc1
inactive: UACC-62 > 100 µM | HCC 2998 > 100 µM | OVCAR-8 > 100 µM | SK-MEL-5 > 100 µM | SK-MEL-28 > 100 µM | OVCAR-5 > 100 µM | IGROV-1 > 100 µM | NCI-H226 > 100 µM | HT-29 91.4 µM | A549 > 100 µM | SF-539 > 100 µM | U-251 27.4 µM | RPMI-8226 > 100 µM | COLO 205 76.9 µM | UACC-257 > 100 µM | SK-OV-3 > 100 µM | EKVX > 100 µM

Cc1cc2c(c(C(N)=O)c1C)-c1cccc(Cl)c1C2=O
inactive: UACC-62 > 100 µM | HCC 2998 > 100 µM | OVCAR-8 > 100 µM | SK-MEL-5 > 100 µM | SK-MEL-28 > 100 µM | OVCAR-5 > 100 µM | IGROV-1 > 100 µM | HT-29 > 100 µM | A549 > 100 µM | SF-539 > 100 µM | NCI-H522 27 µM | U-251 > 100 µM | RPMI-8226 > 100 µM | COLO 205 > 100 µM | UACC-257 > 100 µM | KM12 > 100 µM | SK-OV-3 > 100 µM | EKVX > 100 µM

O=C(Nc1ccc(Cl)cc1)/C(Cc1cccc[n+]1[O-])=N\Nc1ccc([N+](=O)[O-])cc1[N+](=O)[O-]
inactive: UACC-62 > 100 µM | HCC 2998 > 100 µM | OVCAR-8 > 100 µM | SK-MEL-5 > 100 µM | SK-MEL-28 > 100 µM | OVCAR-5 > 100 µM | IGROV-1 > 100 µM | A549 > 100 µM | SF-539 > 100 µM | NCI-H522 > 100 µM | U-251 > 100 µM | RPMI-8226 > 100 µM | COLO 205 > 100 µM | UACC-257 > 100 µM | KM12 > 100 µM | SK-OV-3 > 100 µM | EKVX > 100 µM

COc1ccc(OCC(=O)O)c2c1CCC(C)C2=O (configuration not stated)
inactive: UACC-62 > 100 µM | HCC 2998 > 100 µM | OVCAR-8 > 100 µM | SK-MEL-5 > 100 µM | SK-MEL-28 > 100 µM | OVCAR-5 > 100 µM | IGROV-1 > 100 µM | HT-29 > 100 µM | A549 > 100 µM | SF-539 > 100 µM | NCI-H522 > 100 µM | U-251 > 100 µM | RPMI-8226 > 100 µM | COLO 205 > 100 µM | UACC-257 > 100 µM | KM12 > 100 µM | SK-OV-3 > 100 µM | EKVX > 100 µM
